The values that follow come from patent publication US11524945B2, “Compounds for treating ILK-mediated diseases” (The Cleveland Clinic Foundation, priority 2018, dated 2022).

Converted amounts (≈) assume the structure as drawn. Read-outs that look alike come from different tables or passages of the source.

Data set [1] concerns the target CYP 2A6 (Homo sapiens (Human), UniProt P11509). Description: CYP inhibition in human liver microsomes, 2A6. In kind it is in vitro ADME. In general terms: Liver microsomes are vesicles of endoplasmic reticulum, rich in cytochrome P450 enzymes.
A short description of data set [2]: Stability in rat plasma. Type of data set: in vitro ADME.
The nature of data set [3]: Solubility in PBS at pH 7.4. Type of data set: physicochemical. As to conditions: aqueous buffer.
Data set [4] concerns the target purified recombinant ILK (Homo sapiens (Human), UniProt Q13418). The experiment in a line: ILK binding affinity, EnSpire fluorescence intensity. As to conditions: for binding to purified ILK: fluorescence-based method; for Binding Difference ILK (Kd)/EGFR (Kd) / Kd: EnSpire fluorescence intensity; for Kd: read-out: ILK - Binding affinity.
A short description of data set [5]: Stability in human plasma. In kind it is in vitro ADME.
The nature of data set [6]: Stability in mouse plasma. In kind it is in vitro ADME.
Data set [7] deals with HepG2 cells. Description: Mitochondrial toxicity in HepG2 cells. As to conditions: HepG2 cells; for Fold change in IC50: Glucose vs Galactose; for IC50: Homo sapiens. In kind it is cell-based.
Data set [8] has as its target ILK (Homo sapiens (Human), UniProt Q13418). Description: ILK binding affinity, Nanotemper.
In data set [9] the target is EGFR (Homo sapiens (Human), UniProt P00533). Description: EGFR binding affinity, Nanotemper.
EGFR, sequence (P00533 25-1210): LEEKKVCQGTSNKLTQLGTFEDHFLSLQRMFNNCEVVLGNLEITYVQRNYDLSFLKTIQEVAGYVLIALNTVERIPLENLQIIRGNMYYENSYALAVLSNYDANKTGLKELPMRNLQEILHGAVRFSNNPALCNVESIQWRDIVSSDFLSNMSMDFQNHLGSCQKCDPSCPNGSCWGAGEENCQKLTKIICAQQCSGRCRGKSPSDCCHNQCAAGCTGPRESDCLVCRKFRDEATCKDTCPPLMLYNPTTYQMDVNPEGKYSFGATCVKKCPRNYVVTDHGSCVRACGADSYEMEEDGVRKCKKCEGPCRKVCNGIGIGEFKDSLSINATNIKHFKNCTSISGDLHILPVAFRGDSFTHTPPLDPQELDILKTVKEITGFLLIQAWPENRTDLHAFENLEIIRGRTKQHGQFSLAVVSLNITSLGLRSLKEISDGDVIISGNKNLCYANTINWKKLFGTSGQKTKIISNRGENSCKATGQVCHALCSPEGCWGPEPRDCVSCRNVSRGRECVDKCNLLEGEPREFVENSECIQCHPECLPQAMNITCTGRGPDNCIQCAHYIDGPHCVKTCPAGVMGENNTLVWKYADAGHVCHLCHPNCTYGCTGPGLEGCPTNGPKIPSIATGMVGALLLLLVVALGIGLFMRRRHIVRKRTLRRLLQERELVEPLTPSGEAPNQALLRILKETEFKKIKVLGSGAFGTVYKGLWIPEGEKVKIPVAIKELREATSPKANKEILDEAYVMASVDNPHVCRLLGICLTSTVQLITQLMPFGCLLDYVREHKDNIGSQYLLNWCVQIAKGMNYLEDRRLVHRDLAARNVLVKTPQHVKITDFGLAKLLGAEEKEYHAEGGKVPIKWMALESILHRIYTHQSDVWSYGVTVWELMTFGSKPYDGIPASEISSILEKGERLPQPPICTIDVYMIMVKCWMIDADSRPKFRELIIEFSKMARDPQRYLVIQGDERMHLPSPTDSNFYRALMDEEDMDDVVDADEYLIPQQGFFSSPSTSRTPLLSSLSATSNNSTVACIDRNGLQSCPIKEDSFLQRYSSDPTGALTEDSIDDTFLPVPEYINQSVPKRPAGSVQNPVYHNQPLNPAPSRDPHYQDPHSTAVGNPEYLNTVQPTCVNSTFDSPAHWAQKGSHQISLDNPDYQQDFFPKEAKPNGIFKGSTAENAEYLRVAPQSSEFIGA
Data set [10] in a line: Permeability in Caco2 cell line. Type of data set: in vitro ADME. As to conditions: human; for efflux ratio / Papp A→B / Papp B→A: Caco-2; for efflux ratio: Caco2; for Papp A→B: Caco2, A-B; for Papp B→A: Caco2, B-A. A general note: Caco-2 cells form a polarised layer with tight junctions and transporters.
In data set [11] the target is CYP 2C8 (Homo sapiens (Human), UniProt P10632). Description: CYP inhibition in human liver microsomes, 2C8. In kind it is in vitro ADME.
CYP 2C8, sequence (P10632 whole entry): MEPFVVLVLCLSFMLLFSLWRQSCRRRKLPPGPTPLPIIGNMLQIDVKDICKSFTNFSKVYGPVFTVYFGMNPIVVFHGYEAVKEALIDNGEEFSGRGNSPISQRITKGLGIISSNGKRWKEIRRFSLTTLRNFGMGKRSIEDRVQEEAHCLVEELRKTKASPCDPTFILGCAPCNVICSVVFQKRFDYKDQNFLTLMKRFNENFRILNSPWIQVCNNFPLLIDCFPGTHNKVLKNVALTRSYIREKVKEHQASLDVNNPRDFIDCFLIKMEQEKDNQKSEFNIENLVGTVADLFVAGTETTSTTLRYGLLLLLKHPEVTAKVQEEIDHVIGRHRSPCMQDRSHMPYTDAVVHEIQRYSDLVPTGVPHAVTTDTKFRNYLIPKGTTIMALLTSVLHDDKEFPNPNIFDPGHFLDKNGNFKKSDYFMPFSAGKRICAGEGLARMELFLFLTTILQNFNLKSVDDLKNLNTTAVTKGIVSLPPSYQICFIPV
Data set [12] can be described thus: Stability in PBS at pH 7.4. In kind it is physicochemical.
The nature of data set [13]: Stability in SIF. Type of data set: physicochemical.
The nature of data set [14]: Protein binding in human plasma. In kind it is in vitro ADME.
Data set [15] in a line: Protein binding in rat plasma. In kind it is in vitro ADME.
Data set [16] in a line: Protein binding in mouse plasma. In kind it is in vitro ADME.
Setting [17] is: Galactose, read-out: IC50 (μM)_Galactose.
Setting [18] is: Glucose, read-out: IC50 (μM)_Glucose.
Setting [19] is: Nanotemper, read-out: ILK - Binding affinity.
Where [20] appears, read: Nanotemper, read-out: EGFR - Binding affinity.
The mark [21] stands for this setting: Caco-2, Caco2, AP-BL, read-out: Recovery (%)AP-BL.
Where [22] appears, read: Caco-2, Caco2, BL-AP, read-out: Recovery (%)BL-AP.

purified recombinant ILK, sequence (Q13418 whole entry): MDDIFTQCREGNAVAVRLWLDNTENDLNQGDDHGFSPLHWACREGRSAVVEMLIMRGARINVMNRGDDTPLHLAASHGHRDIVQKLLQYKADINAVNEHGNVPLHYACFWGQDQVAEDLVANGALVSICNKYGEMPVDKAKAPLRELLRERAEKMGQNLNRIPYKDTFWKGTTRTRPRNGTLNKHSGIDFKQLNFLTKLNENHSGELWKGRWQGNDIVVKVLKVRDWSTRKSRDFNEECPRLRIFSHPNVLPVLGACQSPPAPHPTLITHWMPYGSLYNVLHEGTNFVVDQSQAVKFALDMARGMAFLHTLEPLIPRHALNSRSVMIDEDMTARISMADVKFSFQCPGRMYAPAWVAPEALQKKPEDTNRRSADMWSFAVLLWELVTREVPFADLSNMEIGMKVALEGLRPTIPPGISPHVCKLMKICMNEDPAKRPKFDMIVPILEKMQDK
ILK, sequence (Q13418 whole entry): as above
CYP 2A6, sequence (P11509 whole entry): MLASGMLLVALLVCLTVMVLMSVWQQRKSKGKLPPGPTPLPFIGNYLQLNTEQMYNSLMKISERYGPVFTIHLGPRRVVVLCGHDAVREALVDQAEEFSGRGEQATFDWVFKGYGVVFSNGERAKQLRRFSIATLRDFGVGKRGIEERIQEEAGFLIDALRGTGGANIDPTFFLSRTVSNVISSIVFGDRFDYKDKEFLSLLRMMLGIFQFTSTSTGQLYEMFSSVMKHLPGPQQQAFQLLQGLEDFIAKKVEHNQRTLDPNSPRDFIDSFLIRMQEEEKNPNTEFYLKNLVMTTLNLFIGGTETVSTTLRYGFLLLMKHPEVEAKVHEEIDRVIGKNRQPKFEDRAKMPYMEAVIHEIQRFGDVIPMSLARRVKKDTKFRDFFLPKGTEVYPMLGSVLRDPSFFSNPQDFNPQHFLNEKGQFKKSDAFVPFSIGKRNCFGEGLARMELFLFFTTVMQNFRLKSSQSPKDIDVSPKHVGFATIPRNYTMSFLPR

The compound `N[C@@H]1C[C@H]1c1ccccc1` (racemic) [Tranylcypromine, reference compound] showed an IC50 in [1] of 0.69 µM.

In the case of `CC[C@H](C)C(=O)O[C@H]1C[C@@H](C)C=C2C=C[C@H](C)[C@H](CC[C@@H]3C[C@@H](O)CC(=O)O3)[C@H]21` [Mevinolin, reference compound], the “Remaining Percentage (%)” value in data set [2] (0 min) worked out at 100.00%; in [2] (15 min) it was 3.78%; in [2] (30 min) it was 0.00%; in data set [2] (45 min), 0.00%; in data set [2] (60 min), 0.00%; in data set [2] (120 min), 0.00%.

In the case of `CC(=O)[C@H]1CC[C@H]2[C@@H]3CCC4=CC(=O)CC[C@]4(C)[C@H]3CC[C@]12C` [Progesterone, reference compound], the solubility in [3] is 13.9 µM (≈ 4.36 µg/mL).

For `CNC(=O)CCc1cc(-c2ccc(-c3ccc(C(F)(F)F)cc3)cc2)n(-c2ccc(N3CCNCC3)cc2)n1` [Compound 22, reference compound], in [4], the “binding to purified ILK” value is recorded as “no detectable binding”.

Consider `CC(C)[N+](C)(CCOC(=O)C1c2ccccc2Oc2ccccc21)C(C)C` [Propantheline, reference compound], for which the “Remaining Percentage (%)” value in data set [5] (0 min) is recorded as 100.00%; in data set [5] (15 min), 54.01%; in [5] (30 min), 26.58%; in [5] (45 min) it was 9.84%; in data set [5] (60 min), 3.10%; in data set [5] (120 min), 0.13%. In addition, the “Remaining Percentage (%)” value in data set [6] (0 min) was determined as 100.00%; in data set [6] (15 min) it was 74.15%; in data set [6] (30 min), 64.03%; in [6] (45 min), 48.07%; in [6] (60 min), 37.61%; in [6] (120 min), 14.60%.

Take `C[C@@H]1CC[C@@]2(OC1)O[C@H]1[C@@H](O)[C@H]3[C@@H]4CC[C@H]5C[C@@H](O[C@@H]6O[C@H](CO)[C@H](O[C@@H]7O[C@H](CO)[C@@H](O)[C@H](O[C@@H]8OC[C@@H](O)[C@H](O)[C@H]8O)[C@H]7O[C@@H]7O[C@H](CO)[C@H](O)[C@H](O[C@@H]8O[C@H](CO)[C@@H](O)[C@H](O)[C@H]8O)[C@H]7O)[C@H](O)[C@H]6O)[C@H](O)C[C@]5(C)[C@H]4CC[C@]3(C)[C@H]1[C@@H]2C` [Digitonin]: in data set [7], the “Fold change in IC50” value was determined as 2.40. Also, the IC50 in data set [7] (setting [17]) came to 1.79 µM; in data set [7] (setting [18]), 4.3 µM.

For `CN1Cc2c(ccc3c2OCO3)C2C(O)Cc3cc4c(cc3C21)OCO4` (stereo not drawn) [Chelidonine, reference compound], the “binding to purified ILK” value in [4] was “no detectable binding”.

With `C#Cc1cc(Nc2ncnc3cc(OCCOC)ccc23)cc(OCCOC)c1` [Compound 1 New], the “Binding Difference ILK (Kd)/EGFR (Kd)” value in data set [8] (Nanotemper) was 0.5414. The Kd in data set [8] (setting [19]) amounted to 6.85 µM; in data set [9] (setting [20]), 12.7 µM.

With `C[C@H]1O[C@@H](O[C@H]2[C@@H](O)C[C@H](O[C@H]3[C@@H](O)C[C@H](O[C@H]4CC[C@@]5(C)[C@H](CC[C@@H]6[C@@H]5C[C@@H](O)[C@]5(C)[C@@H](C7=CC(=O)OC7)CC[C@]65O)C4)O[C@@H]3C)O[C@@H]2C)C[C@H](O)[C@@H]1O` [Digoxin], the recovery in data set [10] (setting [21]) turned out to be 87.9%. The recovery in data set [10] (setting [22]) worked out at 96.5%. Besides, in data set [10], the efflux ratio is 27, the Papp A→B was determined as 0.61 ×10⁻⁶ cm/s and the Papp B→A was 16.6 ×10⁻⁶ cm/s.

As for `C=C[C@H]1C[N@@]2CC[C@H]1C[C@@H]2[C@@H](O)c1ccnc2ccc(OC)cc12` [Quinidine, reference compound], in data set [11], the midpoint of inhibition, the IC50, lay at 3.72 µM.

Take `CC1=NN(C(=O)CC(=O)Nc2ccc(C)cc2)C(=O)C1/N=N/c1cccc(C(=O)O)c1` (stereo not drawn) [QLT0267-like compound (QLT0267), reference compound]: in data set [4], the “binding to purified ILK” value is “no detectable binding”.

Turning to `C#Cc1cc(C#C)cc(Nc2ncnc3cc(OC)c(OC)cc23)c1` [Compound 4], in data set [4], the “Binding Difference ILK (Kd)/EGFR (Kd)” value turned out to be 1.34 and the Kd is 1.54 µM.

Regarding `CCc1nn(CCCN2CCN(c3cccc(Cl)c3)CC2)c(=O)n1CCOc1ccccc1` [Nefazodone], in [7], the “Fold change in IC50” value is listed as 11.33. The IC50 in data set [7] (setting [17]) stood at 6.82 µM; in data set [7] (setting [18]), 77.2 µM.

Consider `C#Cc1cc(Nc2ncnc3cc(OCCOC)c(OCCOC)cc23)cc(OCCOC)c1` [Compound 7], for which the Kd in [8] (setting [19]) is 2.44 µM.

`C#Cc1cc(Nc2ncnc3cc(OCCOC)c(OCCOC)cc23)cc(OCCOCC)c1` [Compound 8]: the “Binding Difference ILK (Kd)/EGFR (Kd)” value in [8] (Nanotemper) came to 0.1043. Besides, the Kd in [8] (Nanotemper (Table 1), read-out: KD to ILK) was about 0.92 µM; in [8] (setting [19]), 0.922 µM; in data set [9] (Nanotemper (Table 1), read-out: KD to EGFR) it was about 8.84 µM; in data set [9] (setting [20]), 8.84 µM.

As for `O=C(O)CCCc1ccc(N(CCCl)CCCl)cc1` [Chlorambucil, reference compound], the “Remaining Percentage (%)” value in [12] (PBS pH 7.4, 0 min) was determined as 100.00%; in data set [12] (PBS pH 7.4, 30 min) it was 37.17%; in data set [12] (PBS pH 7.4, 60 min), 11.53%; in [12] (PBS pH 7.4, 120 min) it was 2.35%; in [12] (PBS pH 7.4, 180 min), 0.09%; in data set [12] (PBS pH 7.4, 240 min), 0.03%. Moreover, the “Remaining Percentage (%)” value in data set [13] (0 min) worked out at 100.00%; in data set [13] (30 min), 58.85%; in [13] (60 min) it was 33.12%; in data set [13] (120 min), 8.26%; in [13] (180 min) it was 2.57%; in data set [13] (240 min) it was 0.79%.

As for `C#Cc1cc(Nc2ncnc3cc(OCCOC)c(OCCOC)cc23)ccc1C` [Erlotinib-4-methylphenyl analog (E4ME)], in [4], the “Binding Difference ILK (Kd)/EGFR (Kd)” value is recorded as 2.075 and the Kd worked out at 1.55 µM.

In the case of `COc1cc2nc(N3CCN(C(=O)c4ccco4)CC3)nc(N)c2cc1OC` [Prazosin], in [10] (setting [21]), the recovery stood at 85.1%. In addition, the recovery in [10] (setting [22]) worked out at 99%. Also, in data set [10], the efflux ratio came to 2.41 and the Papp B→A was 30.1 ×10⁻⁶ cm/s.

Turning to `CC(C)NCC(O)COc1cccc2ccccc12` (stereo not drawn) [Propranolol], in [10] (setting [21]), the recovery stood at 60.8%. In addition, the recovery in data set [10] (setting [22]) is 80%. For the same compound, in data set [10], the efflux ratio came to 0.82, the Papp A→B worked out at 19.5 ×10⁻⁶ cm/s and the Papp B→A was found to be 15.9 ×10⁻⁶ cm/s.

With `CC(=O)N1CCN(c2ccc(OCC3COC(Cn4ccnc4)(c4ccc(Cl)cc4Cl)O3)cc2)CC1` (stereo not drawn) [Ketoconazole, reference compound], the “% Bound” value is reported as 98.33% in [14], 99.63% in data set [15] and 99.33% in data set [16]. Besides, the “% Recovery” value in [14] is recorded as 101.01%; in data set [15], 100.83%; in data set [16], 104.25%.

Usually IC50 stands for the concentration that inhibits the measured activity by half. In general, solubility refers to the dissolved amount per volume that the medium holds. As usually defined, the efflux ratio is a quotient of directional permeabilities that is used to spot active efflux. As a reminder, the Papp A→B is the apparent permeability from the apical to the basolateral side of a cell layer. A high value points to ready permeation. One may read the Papp B→A as the apparent permeability from the basolateral to the apical side of a cell layer.
